Data: US20240360146A1, “BRUTON'S TYROSINE KINASE AND MUTANT DEGRADER, COMPOSITION AND APPLICATION THEREOF” (HANGZHOU HEALZEN THERAPEUTICS CO., LTD., priority 2021, published 2024)

target: T1, BTK (Homo sapiens, UniProt Q06187); test: BTK degradation activity test in Mino cells; assay type: cell-based; settings: 16 h incubation, Western blot or Elisa
T1 construct: endogenous in cells; host or cells: Mino cells
Outline: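 DC50 derived by curve fitting of BTK degradation rates versus untreated control across compound concentrations. Mino cells were exposed for 16 h; BTK levels in lysates, normalised via BCA protein, measured by Western blot or ELISA.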

T1 sequence (Q06187 whole entry): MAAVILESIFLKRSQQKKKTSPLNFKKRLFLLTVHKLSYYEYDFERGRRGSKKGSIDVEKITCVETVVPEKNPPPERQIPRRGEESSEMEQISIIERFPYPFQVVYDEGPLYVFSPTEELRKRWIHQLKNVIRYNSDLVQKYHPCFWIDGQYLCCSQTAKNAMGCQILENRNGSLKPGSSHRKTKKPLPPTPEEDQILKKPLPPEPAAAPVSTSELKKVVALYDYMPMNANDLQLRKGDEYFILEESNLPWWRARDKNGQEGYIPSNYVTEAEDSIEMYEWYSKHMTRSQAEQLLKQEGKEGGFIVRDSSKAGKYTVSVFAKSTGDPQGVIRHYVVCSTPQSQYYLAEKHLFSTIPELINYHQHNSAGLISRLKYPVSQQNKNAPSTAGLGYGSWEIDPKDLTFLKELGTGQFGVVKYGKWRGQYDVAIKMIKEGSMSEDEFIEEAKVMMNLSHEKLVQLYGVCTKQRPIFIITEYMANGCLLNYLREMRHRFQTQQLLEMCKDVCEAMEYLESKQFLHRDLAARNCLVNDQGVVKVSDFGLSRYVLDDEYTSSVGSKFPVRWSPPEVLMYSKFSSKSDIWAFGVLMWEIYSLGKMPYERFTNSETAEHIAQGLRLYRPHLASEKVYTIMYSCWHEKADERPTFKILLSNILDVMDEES

SMILES | DC50 [nM]
CC1(c2ccc(Nc3nc(N4CCCC(n5cc6ccccn6c5=O)C4)cnc3C(N)=O)cc2)CCN(C2CN(c3ccc4c(c3)C(=O)N(C3CCC(=O)NC3=O)C4=O)C2)CC1 (stereo not drawn) [Compound 026, 3-((4-(1-(1-(2-(2,6-dioxopiperidin-3-yl)-1,3-dioxoisoindolin-5-yl)azetidin-3-yl)-4-methylpiperidin-4-yl)phenyl)amino)-5-(3-(3-oxoimidazo[1,5-a]pyridin-2(3H)-yl)piperidin-1-yl)pyrazin-2-carboxamide] | > 1
CN1C(=O)N(C2CCCN(c3cnc(C(N)=O)c(Nc4ccc(C5CCN(CC6CCN(c7ccc8c(c7)C(=O)N(C7CCC(=O)NC7=O)C8=O)C6)CC5)cc4)n3)C2)CC12CC2 (stereo not drawn) [Compound 044, 3-((4-(1-((1-(2-(2,6-dioxopiperidin-3-yl)-1,3-dioxoisoindolin-5-yl)pyrrolidin-3-yl)methyl)piperidin-4-yl)phenyl)amino)-5-(3-(4-methyl-5-oxo-4,6-diazaspiro[2.4]cycloheptan-6-yl)piperidin-1-yl)pyrazin-2-carboxamide] | < 1
CN1CCN([C@@H]2CCCN(c3nnc(C(N)=O)c(Nc4ccc(N5CCN(CC6CCN(c7ccc8c(C9CCC(=O)NC9=O)nn(C)c8n7)CC6)CC5)c(F)c4)n3)C2)C1=O (stereo partly drawn) [Compound 215, 5-((4-(4-((1-(3-(2,6-dioxopiperidin-3-yl)-1-methyl-1H-pyrazolyl[3,4-b]pyridin-6-yl)piperidin-4-yl)methyl)piperazin-1-yl)-3-fluorophenyl)amino)-3-((R)-3-(3-methyl-2-oxoimidazolidin-1-yl)piperidin-1-yl)-1,2,4-triazin-6-carboxamide] | < 1
N#Cc1cc(Nc2nc(N3CCCC(N4CCN(C5CCCC5)C4=O)C3)cnc2C(N)=O)ccc1C1CCN(CC2CCN(c3ccc4c(c3)C(=O)N(C3CCC(=O)NC3=O)C4=O)C2)CC1 (stereo not drawn) [Compound 042, 3-((3-cyano-4-(1-((1-(2-(2,6-dioxopiperidin-3-yl)-1,3-dioxoisoindolin-5-yl)pyrrolidin-3-yl)methyl)piperidin-4-yl)phenyl)amino)-5-(3-(3-cyclopentyl-2-oxoimidazolin-1-yl)piperidin-1-yl)pyrazin-2-carboxamide] | < 1
Cc1cc(N2CCC(CN3CCC(c4ccc(Nc5c(F)c(N6CCC[C@@H](N7CCN(C)C7=O)C6)c(F)c(F)c5C(N)=O)cc4F)CC3)CC2)ccc1N1CCC(=O)NC1=O [Compound 242, (R)-2-((4-(1-((1-(4-(2,4-dioxotetrahydropyrimidin-1(2H)-yl)-3-methylphenyl)piperidin-4-yl)methyl)piperidin-4-yl)-3-fluorophenyl)amino)-3,5,6-trifluoro-4-(3-(3-methyl-2-oxoimidazolidin-1-yl)piperidin-1-yl)benzamide] | < 1
NC(=O)c1nnc(N2CCCC(N3CCN(c4cccnc4)C3=O)C2)nc1Nc1ccc(C2CCN(CC3CCN(c4ccc5c(c4)C(=O)N(C4CCC(=O)NC4=O)C5=O)CC3)CC2)cc1 (stereo not drawn) [Compound 067, 5-((4-(1-((1-(2-(2,6-dioxopiperidin-3-yl)-1,3-dioxoisoindol-5-yl)piperidin-4-yl)methyl)piperidin-4-yl)phenyl)amino)-3-(3-(2-oxo-3-(pyridin-3-yl)imidazolin-1-yl)piperidin-1-yl)-1,2,4-triazin-6-carboxamide] | < 1
NC(=O)c1ncc(N2CCCC(N3CCN(C4COC4)C3=O)C2)nc1Nc1ccc(N2CCC3(CC2)CC(N2CCN(c4ccc5c(c4)C(=O)N(C4CCC(=O)NC4=O)C5=O)CC2)C3)cc1 (stereo not drawn) [Compound 019] | > 1
CN1CCN([C@@H]2CCCN(c3nnc(C(N)=O)c(Nc4ccc(N5CCN(CC6CCN(c7ccc8c9c([nH]c8c7)C(=O)N(C7CCC(=O)NC7=O)C9)C6)CC5)c(F)c4)n3)C2)C1=O (stereo partly drawn) [Compound 220, 5-((4-(4-((1-(2-(2,6-dioxopiperidin-3-yl)-3-oxo-1,2,3,4-tetrahydropyrrolo[3,4-b]indol-6-yl)pyrrolidin-3-yl)methyl)piperazin-1-yl)-3-fluorophenyl)amino)-3-((R)-3-(3-methyl-2-oxoimidazolidin-1-yl)piperidin-1-yl)-1,2,4-triazin-6-carboxamide] | < 1
Cn1c(=O)n(C2CCC(=O)NC2=O)c2cccc(N3CC(N4CCC(C)(c5ccc(Nc6nc(N7CCCC(N8CCN(C9CCCC9)C8=O)C7)cnc6C(N)=O)cc5)CC4)C3)c21 (stereo not drawn) [Compound 022] | < 1
CN1CCN([C@@H]2CCCN(c3nnc(C(N)=O)c(Nc4cc(F)c5c(c4)CCN(CC4CCN(c6ccc7c(c6)C(=O)N(C6CCC(=O)NC6=O)C7=O)CC4)CC5)n3)C2)C1=O (stereo partly drawn) [Compound 231, 5-((3-((1-(2-(2,6-dioxopiperidin-3-yl)-1,3-dioxoisoindolin-5-yl)piperidin-4-yl)methyl)-9-fluoro-2,3,4,5-tetrahydro-1H-benzo[d]azepin-7-yl)amino)-3-((R)-3-(3-methyl-2-oxoimidazolidin-1-yl)piperidin-1-yl)-1,2,4-triazin-6-carboxamide] | < 1
CN1CCN(C2CCCN(c3nnc(C(N)=O)c(Nc4ccc(C5CCN(CC6CCN(c7ccc8c(c7)CN(C7CCC(=O)NC7=O)C8=O)CC6)CC5)cc4)n3)C2)C1=O (stereo not drawn) [Compound 087, 5-((4-(1-((1-(2-(2,6-dioxopiperidin-3-yl)-1-oxoisooctyl-5-yl)piperidin-4-yl)methyl)piperidin-4-yl)phenyl)amino)-3-(3-(3-methyl-2-oxyimidazolin-1-yl)piperidin-1-yl)-1,2,4-triazin-6-carboxamide] | < 1
CC1(c2ccc(Nc3nc(N4CCCC(N5CCN(c6ccccc6)C5=O)C4)nnc3C(N)=O)cc2)CCN(C2CN(c3ccc4c(c3)C(=O)N(C3CCC(=O)NC3=O)C4=O)C2)CC1 (stereo not drawn) [Compound 092, 5-((4-(1-(1-(2-(2,6-dioxopiperidin-3-yl)-1,3-dioxoisoindol-5-yl)azetidine-3-yl)-4-methylpiperidin-4-yl)phenyl)amino)-3-(3-(2-oxo-3-phenylimidazolin-1-yl)piperidin-1-yl)-1,2,4-triazin-6-carboxamide] | > 1

Continued, values first:

DC50 [nM] | SMILES
< 1 | NC(=O)c1ncc(N2CCCC(N3CCN(C4CCCC4)C3=O)C2)nc1Nc1ccc2c(c1)CCN(CC1CN(c3ccc4c(c3)C(=O)N(C3CCC(=O)NC3=O)C4=O)C1)C2 (stereo not drawn) [Compound 033, 5-(3-(3-cyclopentyl-2-oxoimidazolin-1-yl)piperidin-1-yl)-3-((2-((1-(2-(2,6-dioxopiperidin-3-yl)-1,3-dioxoisoindol-5-yl)azetidin-3-yl)methyl)-1,2,3,4-tetrahydroisoquinolin-6-yl)amino)pyrazin-2-carboxamide]
< 1 | CN1CCN(C2CCCN(c3ncc(C(N)=O)c(Nc4ccc(C5(C)CCN(CC6CCN(c7ccc8c(c7)C(=O)N(C7CCC(=O)NC7=O)C8=O)C6)CC5)cc4)n3)C2)C1=O (stereo not drawn) [Compound 036, 4-((4-(1-((1-(2-(2,6-dioxopiperidin-3-yl)-1,3-dioxoisoindolin-5-yl)pyrrolidin-3-yl)methyl)-4-methylpiperidin-4-yl)phenyl)amino)-2-(3-(3-methyl-2-oxoimidazolin-1-yl)piperidin-1-yl)pyrimidin-5-carboxamide]
< 1 | CN1CCN(C2CCCN(c3nnc(C(N)=O)c(Nc4ccc(C5(C)CCN(C6CCN(c7ccc8c(c7)C(=O)N(C7CCC(=O)NC7=O)C8=O)CC6)CC5)cc4)n3)C2)C1=O (stereo not drawn) [Compound 078, 5-((4-(1′-(2-(2,6-dioxopiperidin-3-yl)-1,3-dioxoisoindol-5-yl)-4-methyl-[1,4′-bipiperidin]-4-yl)phenyl)amino)-3-(3-(3-methyl-2-oxoimidazolidin-1-yl)piperidin-1-yl)-1,2,4-triazin-6-carboxamide]
< 1 | NC(=O)c1ncc(N2CCCC(N3CCN(C4COC4)C3=O)C2)nc1Nc1ccc(N2CCN(C3CN(c4ccc5c(c4)C(=O)N(C4CCC(=O)NC4=O)C5=O)C3)CC2)cc1 (stereo not drawn) [Compound 015, 3-((4-(4-(1-(2-(2,6-dioxopiperidin-3-yl)-1,3-dioxoisoindol-5-yl)azetidin-3-yl)piperazin-1-yl)phenyl)amino)-5-(3-(3-(oxetan-3-yl)-2-oxoimidazolin-1-yl)piperidin-1-yl) pyrazin-2-carboxamide]
< 1 | CN1CCN([C@@H]2CCCN(c3nnc(C(N)=O)c(Nc4ccc(N5CCN(CC6CCN(c7ccn8c(N9CCC(=O)NC9=O)cnc8c7)CC6)CC5)c(F)c4)n3)C2)C1=O [Compound 245]
< 1 | CN1CCN(C2CCCN(c3nnc(C(N)=O)c(Nc4ccc5c(c4)CCN(C4CN(c6ccc7c(c6)C(=O)N(C6CCC(=O)NC6=O)C7=O)C4)C5)n3)C2)C1=O (stereo not drawn) [Compound 080]
< 1 | CC1(c2ccc(Nc3nc(N4CCCC(N5CC6CCCN6C5=O)C4)cnc3C(N)=O)cc2)CCN(C2CN(c3ccc4c(c3)C(=O)N(C3CCC(=O)NC3=O)C4=O)C2)CC1 (stereo not drawn) [Compound 005, 3-((4-(1-(1-(2-(2,6-dioxopiperidin-3-yl)-1,3-dioxoisoindol-5-yl)azetidin-3-yl)-4-methylpiperidin-4-yl)phenyl)amino)-5-(3-(3-oxotetrahydro-1H-pyrrolo[1,2-c]imidazo 1-2(3H)-yl)piperidin-1-yl)pyrazin-2-carboxamide]
< 1 | CN1CCN([C@@H]2CCCN(c3nnc(C(N)=O)c(Nc4ccc(N5CCN(CC6CCN(c7ccc(N8CCC(=O)NC8=O)cc7)CC6)C(=O)C5)c(F)c4)n3)C2)C1=O [Compound 235, (R)-5-((4-(4-((1-(4-(2,4-dioxotetrahydropyrimidin-1(2H)-yl)phenyl)piperidin-4-yl)methyl)-3-oxopiperazin-1-yl)-3-fluorophenyl)amino)-3-(3-(3-methyl-2-oxoimidazolidin-1-yl)piperidin-1-yl)-1,2,4-triazin-6-carboxamide]
> 1 | CN1CCN(C2CC3CCC2N(c2nnc(C(N)=O)c(Nc4ccc(C5CCN(CC6CCN(c7ccc8c(c7)C(=O)N(C7CCC(=O)NC7=O)C8=O)CC6)CC5)cc4)n2)C3)C1=O (stereo not drawn) [Compound 075, 5-((4-(1-((1-(2-(2,6-dioxopiperidin-3-yl)-1,3-dioxoisoindol-5-yl)piperidin-4-yl)methyl)piperidin-4-yl)phenyl)amino)-3-(6-(3-methyl-2-oxoimidazolin-1-yl)-2-azabicyclo[2.2.2]octan-2-yl)-1,2,4-triazin-6-carboxamide]
